Nine compounds from PubChem BioAssay (NCI) can be followed below.

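In this assay, cells in 96-well plates receive the compound at five concentrations for 48 hours. Endpoints are linearly interpolated between the surrounding concentrations. GI50 = concentration required for 50% inhibition of growth. TGI: total growth inhibition.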 Bounds are passed on as bounds.

Test systems include UO-31 renal; MCF7 breast; NCI-H226 lung; SW-620 colon; T-47D breast; A549 NSCLC; K-562 leukemia; SK-MEL-2 melanoma.
Holding throughout (test): NCI anticancer screen, dose series, 48 h

For the compound `Cc1ccc(-n2c(-c3cc4c([nH]c5ccccc54)c(-c4cccc(O)c4)n3)n[nH]c2=S)cc1`, the GI50 is 2.56 µM in the assay on UO-31 renal; 1.8 µM in the assay on MCF7 breast; 0.658 µM in the assay with NCI-H226 lung; 0.406 µM in the assay with SW-620 colon; 1.8 µM in the assay on T-47D breast; 2.34 µM in the assay with A549 NSCLC. Also, in the assay with K-562 leukemia, the GI50 was 0.523 µM. In addition, the TGI in the assay on UO-31 renal is 15 µM; in the assay with MCF7 breast it was 10.5 µM; with NCI-H226 lung, 3.94 µM; with SW-620 colon, 11.8 µM; with T-47D breast, 11.9 µM; in the assay with A549 NSCLC, 10.4 µM. In the assay with K-562 leukemia, this compound came in with a TGI of over 100 µM.
For `O=C(c1ccco1)c1c(C(F)(F)F)n([O-])c2cc(F)c(F)cc2[n+]1=O`, the GI50 in the assay with SK-MEL-2 melanoma is 2.93 µM; in the assay on UO-31 renal it was 0.546 µM; in the assay on MCF7 breast, 0.108 µM; with NCI-H226 lung it was 0.926 µM; in the assay with T-47D breast, 0.782 µM; with A549 NSCLC, 1.32 µM. Further, in the assay on K-562 leukemia, the GI50 is 0.079 µM. Besides, the TGI with SK-MEL-2 melanoma is 12.8 µM; in the assay on UO-31 renal, 1.03 µM; in the assay on MCF7 breast, 2.62 µM; in the assay with NCI-H226 lung, 2.35 µM; in the assay with SW-620 colon, 0.0132 µM; in the assay on T-47D breast, 22.7 µM. Also, the TGI came out at 3.12 µM with A549 NSCLC and 8.34 µM in the assay with K-562 leukemia.
On to `Cc1ccc(Cl)cc1-n1c(C)nc2c(cnn2-c2ccnc3c(C(F)(F)F)cccc23)c1=O`, for which the GI50 with SK-MEL-2 melanoma, with UO-31 renal, with MCF7 breast, in the assay on NCI-H226 lung, in the assay with SW-620 colon and in the assay with T-47D breast was over 100 µM throughout. The GI50 with A549 NSCLC and with K-562 leukemia was over 100 µM each time. Besides, the TGI with SK-MEL-2 melanoma, in the assay with UO-31 renal, in the assay on MCF7 breast, in the assay with NCI-H226 lung, in the assay with SW-620 colon and in the assay with T-47D breast was over 100 µM throughout. For the same compound, the TGI in the assay with A549 NSCLC and with K-562 leukemia was over 100 µM each time.
For `COc1ccc(-c2[nH]c3ccccc3c2/C=C(\C#N)S(=O)(=O)c2ccccc2)cc1`, the GI50 was 4.79 µM with SK-MEL-2 melanoma; 1.88 µM in the assay on UO-31 renal; 0.398 µM with MCF7 breast; 2.02 µM in the assay on NCI-H226 lung; 0.503 µM in the assay on SW-620 colon; 0.53 µM in the assay with T-47D breast. Moreover, the GI50 in the assay with A549 NSCLC is 0.759 µM; with K-562 leukemia, 0.535 µM. Moreover, the TGI in the assay on SK-MEL-2 melanoma is over 21.8 µM; with MCF7 breast, over 51.6 µM; with NCI-H226 lung it was over 66.4 µM; in the assay on SW-620 colon, over 100 µM; with T-47D breast it was 6.15 µM; in the assay on A549 NSCLC it was over 35.5 µM. In addition, the TGI in the assay on K-562 leukemia is over 100 µM.
`CSC1=Nc2c(c(C)c(-c3ccccc3)n2COC(CO)CO)C2=NC(=O)CN12`: the GI50 was over 100 µM in the assay with SK-MEL-2 melanoma; over 100 µM with UO-31 renal; over 100 µM with MCF7 breast; 88.2 µM with NCI-H226 lung; over 100 µM with SW-620 colon; over 100 µM with T-47D breast. In addition, the GI50 in the assay with A549 NSCLC and in the assay with K-562 leukemia was over 100 µM in each case. In addition, the TGI in the assay on SK-MEL-2 melanoma, with UO-31 renal, with MCF7 breast, in the assay on NCI-H226 lung, with SW-620 colon and with T-47D breast was over 100 µM throughout. Moreover, the TGI in the assay on A549 NSCLC and in the assay on K-562 leukemia was over 100 µM each time.
In the case of `Nc1nc2ccccc2c2c1S(=O)(=O)c1ccc(Cl)cc1C2=O`, the GI50 with SK-MEL-2 melanoma was 2.27 µM; with UO-31 renal, 1.21 µM; in the assay with MCF7 breast, 1.49 µM; with NCI-H226 lung it was 2.14 µM; with SW-620 colon, 1.02 µM; with T-47D breast, 1.24 µM. Also, the values for the GI50 with A549 NSCLC and in the assay on K-562 leukemia were 3.26 µM and 1.45 µM, respectively. In addition, the TGI in the assay on SK-MEL-2 melanoma is over 50 µM; in the assay on UO-31 renal, 9.38 µM; with MCF7 breast it was over 50 µM; in the assay on NCI-H226 lung, 17.3 µM; in the assay with SW-620 colon it was 2.25 µM; in the assay with T-47D breast, over 50 µM. Moreover, the TGI in the assay with A549 NSCLC and in the assay with K-562 leukemia was over 50 µM throughout.
Consider `N#Cc1cccc(Nc2ncc(-c3ccccc3)o2)c1`, for which the GI50 with SK-MEL-2 melanoma was over 25 µM; in the assay on UO-31 renal, 7.84 µM; with MCF7 breast it was 8.25 µM; in the assay with NCI-H226 lung, 8.65 µM; in the assay with SW-620 colon, 22.4 µM; with T-47D breast, 11.7 µM. Besides, the GI50 with A549 NSCLC was 11.7 µM; in the assay on K-562 leukemia, over 25 µM. The TGI in the assay on SK-MEL-2 melanoma, in the assay with UO-31 renal, in the assay with MCF7 breast, in the assay on NCI-H226 lung, with SW-620 colon and in the assay on T-47D breast was over 25 µM each time. In addition, the TGI with A549 NSCLC and in the assay on K-562 leukemia was over 25 µM throughout.
For the compound `N#Cc1c(NC(=O)c2ccccc2F)sc2c1CCCC2`, the GI50 was over 25 µM in the assay with SK-MEL-2 melanoma; over 25 µM in the assay with UO-31 renal; over 19.5 µM in the assay on MCF7 breast; over 25 µM in the assay with NCI-H226 lung; 8.77 µM in the assay with SW-620 colon; over 25 µM in the assay on T-47D breast. Moreover, the GI50 with A549 NSCLC is over 25 µM; in the assay on K-562 leukemia it was 5.07 µM. For the same compound, the TGI with SK-MEL-2 melanoma, in the assay on UO-31 renal, in the assay on MCF7 breast, with NCI-H226 lung, in the assay with SW-620 colon and with T-47D breast was over 25 µM each time. The TGI with A549 NSCLC and in the assay on K-562 leukemia was over 25 µM in each case.
On to `O=S(=O)(O)c1ccc2cc3nn(-c4ccc(/C=C/c5ccc(-n6nc7cc8ccc(S(=O)(=O)O)cc8cc7n6)cc5S(=O)(=O)O)c(S(=O)(=O)O)c4)nc3cc2c1`, for which the GI50 in the assay with SK-MEL-2 melanoma is over 100 µM; in the assay with UO-31 renal, 26.1 µM; in the assay on MCF7 breast, over 100 µM; with NCI-H226 lung it was over 100 µM; in the assay on SW-620 colon, 63.2 µM; in the assay with T-47D breast, over 100 µM. The GI50 in the assay on A549 NSCLC was 41.7 µM; in the assay on K-562 leukemia, 61 µM. The TGI with SK-MEL-2 melanoma, in the assay on UO-31 renal, with MCF7 breast, in the assay on NCI-H226 lung, with SW-620 colon and in the assay with T-47D breast was over 100 µM each time. Besides, the TGI in the assay with A549 NSCLC and in the assay with K-562 leukemia was over 100 µM throughout.
